Measurements taken from patent publication US7598417B2, “Substituted fluoroethyl ureas as alpha 2 adrenergic agents” (Allergan, Inc., priority 2007, dated 2009).

Key:
Assay type in all cases: cell-based
[1] = biological target: T1, alpha2A receptor (Homo sapiens, UniProt P08913); assay: Receptor Selection and Amplification Technology (RSAT) assay, alpha2A; conditions: for Alpha 2A EC50 / EC50: RSAT, NIH-3T3 cells cotransfected with receptor and Gq/i5, not active = not active at concentrations less than 10 micromolar; for EC50: read-out: Alpha 2A EC50; for Alpha 2A IA (intrinsic activity): ratio of maximal effect of the drug to maximal effect of standard full agonist brimonidine (UK14304)
T1 construct: expressed in transfected cells; host or cells: NIH-3T3
T1 sequence (P08913 1-465): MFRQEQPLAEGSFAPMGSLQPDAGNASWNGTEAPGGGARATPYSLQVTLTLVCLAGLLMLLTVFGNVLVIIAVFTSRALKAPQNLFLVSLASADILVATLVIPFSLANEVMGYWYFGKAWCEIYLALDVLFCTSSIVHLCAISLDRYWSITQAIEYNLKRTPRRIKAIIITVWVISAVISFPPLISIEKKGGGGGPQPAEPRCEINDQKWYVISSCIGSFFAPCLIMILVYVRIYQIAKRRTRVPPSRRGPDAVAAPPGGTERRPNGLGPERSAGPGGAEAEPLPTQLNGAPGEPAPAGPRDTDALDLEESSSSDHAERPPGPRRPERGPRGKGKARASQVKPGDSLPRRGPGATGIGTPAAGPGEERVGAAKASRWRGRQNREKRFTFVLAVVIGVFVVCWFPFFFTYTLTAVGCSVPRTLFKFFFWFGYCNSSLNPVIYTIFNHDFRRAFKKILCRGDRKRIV
Procedure: (§1) Receptor Selection and Amplification Technology (RSAT) Assay
(§2) The RSAT assay measures a receptor-mediated loss of contact inhibition that results in selective proliferation of receptor-containing cells in a mixed population of confluent cells. The increase in cell number is assessed with an appropriate transfected marker gene such as β-galactosidase, the activity of which can be easily measured in a 96-well format. Receptors that activate the G protein, Gq, elicit this response. Alpha2 receptors, which normally couple to Gi, activate the RSAT response when coexpressed with a hybrid Gq protein that has a Gi receptor recognition domain, called Gq/i5.
(§3) NIH-3T3 cells are plated at a density of 2×10^6 cells in 15 cm dishes and maintained in Dulbecco's modified Eagle's medium supplemented with 10% calf serum. One day later, cells are cotransfected by calcium phosphate precipitation with mammalian expression plasmids encoding p-SV-β-galactosidase (5-10 μg), receptor (1-2 μg) and G protein (1-2 μg). 40 μg salmon sperm DNA may also be included in the transfection mixture. Fresh media is added on the following day and 1-2 days later, cells are harvested and frozen in 50 assay aliquots. Cells are thawed and 100 μl added to 100 μl aliquots of various concentrations of drugs in triplicate in 96-well dishes. Incubations continue 72-96 hr at 37° C. After washing with phosphate-buffered saline, β-galactosidase enzyme activity is determined by adding 200 μl of the chromogenic substrate (consisting of 3.5 mM o-nitrophenyl-β-D-galactopyranoside and 0.5% nonidet P-40 in phosphate buffered saline), incubating overnight at 30° C. and measuring optical density at 420 nm. The absorbance is a measure of enzyme activity, which depends on cell number and reflects a receptor-mediated cell proliferation. The efficacy or intrinsic activity is calculated as a ratio of the maximal effect of the drug to the maximal effect of a standard full agonist for each receptor subtype. Brimonidine, also called UK14304, the chemical structure of which is shown below, is used as the standard agonist for the alpha2A, alpha2B and alpha2C receptors. The EC50 is the concentration at which the drug effect is half of its maximal effect.
(§4) EC50 values are nanomolar. NA stands for “not active” at concentrations less than 10 micromolar. IA stands for “intrinsic activity.”

[2] = biological target: T2, alpha2B receptor (Homo sapiens, UniProt P18089); assay: Receptor Selection and Amplification Technology (RSAT) assay, alpha2B; conditions: for EC50: read-out: Alpha 2B EC50; for Alpha 2B IA (intrinsic activity): ratio of maximal effect of the drug to maximal effect of standard full agonist brimonidine (UK14304)
T2 construct: expressed in transfected cells; host or cells: NIH-3T3
T2 sequence (P18089 1-450): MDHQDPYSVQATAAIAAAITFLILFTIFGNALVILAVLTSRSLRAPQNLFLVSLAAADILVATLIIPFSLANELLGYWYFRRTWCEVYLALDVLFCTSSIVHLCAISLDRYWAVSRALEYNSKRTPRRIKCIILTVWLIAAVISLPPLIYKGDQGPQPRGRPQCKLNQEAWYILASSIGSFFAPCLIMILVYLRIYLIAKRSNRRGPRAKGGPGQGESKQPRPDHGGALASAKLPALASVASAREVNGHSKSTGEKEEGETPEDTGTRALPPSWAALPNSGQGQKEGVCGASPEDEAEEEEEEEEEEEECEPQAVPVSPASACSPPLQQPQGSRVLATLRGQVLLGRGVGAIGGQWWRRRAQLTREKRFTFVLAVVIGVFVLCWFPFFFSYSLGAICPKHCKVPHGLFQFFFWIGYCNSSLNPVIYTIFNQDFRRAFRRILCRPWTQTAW
Procedure: as §1, §2, §3
The results of the RSAT assay with several exemplary compounds of the invention are disclosed in Table 1 above together with the chemical formulas of these exemplary compounds. EC50 values are nanomolar. NA stands for “not active” at concentrations less than 10 micromolar. IA stands for “intrinsic activity.”

[3] = biological target: T3, alpha2C receptor (Homo sapiens, UniProt P18825); assay: Receptor Selection and Amplification Technology (RSAT) assay, alpha2C; conditions: for EC50 / Alpha 2C EC50: RSAT, NIH-3T3 cells cotransfected with receptor and Gq/i5, not active = not active at concentrations less than 10 micromolar; for EC50: read-out: Alpha 2C EC50; for Alpha 2C IA (intrinsic activity): ratio of maximal effect of the drug to maximal effect of standard full agonist brimonidine (UK14304)
T3 construct: expressed in transfected cells; host or cells: NIH-3T3
T3 sequence (P18825 1-462): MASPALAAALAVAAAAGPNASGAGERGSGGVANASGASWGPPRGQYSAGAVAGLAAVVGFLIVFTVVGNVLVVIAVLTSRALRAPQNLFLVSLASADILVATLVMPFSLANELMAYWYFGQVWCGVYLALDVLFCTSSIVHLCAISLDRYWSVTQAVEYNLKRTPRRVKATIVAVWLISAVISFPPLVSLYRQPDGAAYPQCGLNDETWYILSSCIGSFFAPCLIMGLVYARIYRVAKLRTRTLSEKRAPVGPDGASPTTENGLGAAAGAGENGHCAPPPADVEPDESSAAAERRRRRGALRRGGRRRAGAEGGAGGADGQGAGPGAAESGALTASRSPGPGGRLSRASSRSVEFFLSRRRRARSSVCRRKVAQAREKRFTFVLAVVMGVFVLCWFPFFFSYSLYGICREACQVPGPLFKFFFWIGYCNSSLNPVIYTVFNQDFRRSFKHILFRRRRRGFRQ
Procedure: as §1, §2, §3, §4

[4] = RSAT, NIH-3T3 cells cotransfected with receptor and Gq/i5, not active = not active at concentrations less than 10 micromolar

SMILES | Alpha 2A EC50 [1] | EC50 [2, 4] [nM] | Alpha 2B IA (intrinsic activity) [2] | EC50 [3] [nM] | Alpha 2C IA (intrinsic activity) [3] | EC50 [1] [nM] | Alpha 2A IA (intrinsic activity) [1] | Alpha 2C EC50 [3] | Alpha 2B EC50 [2, 4]
O=C(NCCF)NC1CCc2ccc(Cl)c(Cl)c21 (centres unmarked) | not active | 72.4 | 1.0 | 29.5 | 0.43 |  |  |  | 
O=C(NCCF)NC1CCc2c(Cl)cccc21 (centres unmarked) |  | 2.5 | 1.03 | 116 | 1.1 | 34.9 | 1.05 |  | 
O=C(NCCF)NC1CCc2ccc(F)cc21 (centres unmarked) | not active | 20 | 0.54 | 60 | 0.47 |  |  |  | 
CCc1cccc2c1CCCC2NC(=O)NCCF (centres unmarked) |  | 158 | 0.93 | 904 | 0.34 | 450 | 0.32 |  | 
O=C(NCCF)NC1CCc2cccc(Br)c21 (centres unmarked) |  | 20 | 1.01 | 716 | 0.97 | 111 | 0.52 |  | 
O=C(NCCF)NC1CCCc2sccc21 (centres unmarked) | not active | 9.6 | 0.86 | 40 | 0.52 |  |  |  | 
O=C(NCCF)NC1CCCc2c(F)cccc21 (centres unmarked) |  | 8.2 | 1.03 | 107 | 0.76 | 68.3 | 0.52 |  | 
O=C(NCCF)NC1CCc2cccc(F)c21 (centres unmarked) |  | 8.8 | 1.08 | 95.4 | 0.55 | 59.6 | 0.41 |  | 
O=C(NCCF)NC1Cc2cccc(Br)c2C1 (centres unmarked) | not active | 156 | 0.45 |  |  |  |  | not active | 
O=C(NCCF)NC1CCc2ccc(Br)cc21 (centres unmarked) | not active | 302 | 0.52 | 220 | 0.45 |  |  |  | 
CC1=C(C=O)CCCC1NC(=O)NCCF (centres unmarked) | not active | 2580 | 0.81 | 3620 | 0.32 |  |  |  | 
COc1cccc2c1C(NC(=O)NCCF)CC2 (centres unmarked) |  | 544 | 0.63 | 972 | 0.54 | 277 | 0.48 |  | 
O=C(NCCF)NC1CCc2cc(Br)ccc21 (centres unmarked) | not active | 2620 | 0.31 | 1260 | 0.31 |  |  |  | 
Cc1c(Br)ccc2c1C(NC(=O)NCCF)CC2 (centres unmarked) | not active | 238 | 0.37 |  |  |  |  | not active | 
O=C(NCCF)NC1CCc2c(OC(=O)c3ccccc3)cccc21 (centres unmarked) |  | 8.3 | 0.95 | 102 | 0.73 | 95 | 0.62 |  | 
O=C(NCCF)N[C@@H]1CCc2ccccc21 |  | 565 | 0.55 | 1820 | 0.61 | 693 | 0.36 |  | 
O=C(NCCF)NC1CCc2cccnc21 (centres unmarked) | not active | 3080 | 0.81 |  |  |  |  | not active | 
COc1ccc2c(c1)CC(NC(=O)NCCF)C2 (centres unmarked) | not active | 1370 | 0.45 |  |  |  |  | not active | 
Cc1ccc2c(c1C)C(NC(=O)NCCF)CC2 (centres unmarked) | not active | 649 | 0.64 |  |  |  |  | not active | 
CC1CC(NC(=O)NCCF)c2ccccc21 (centres unmarked) | not active | 10.9 | 0.96 | 168 | 0.43 |  |  |  | 
O=C(NCCF)NC1CCc2c(O)cccc21 (centres unmarked) |  | 9.6 | 0.96 | 73 | 0.73 | 186 | 0.53 |  | 
COc1cccc2c1CCC2NC(=O)NCCF (centres unmarked) |  | 121 | 0.72 | 1110 | 0.59 | 2070 | 0.48 |  | 
CCC1=C(C)C(NC(=O)NCCF)CC1 (centres unmarked) | not active | 319 | 0.88 | 886 | 0.37 |  |  |  | 
O=C(NCCF)N[C@H]1CCc2ccccc21 | not active | 1.6 | 1.0 | 17.5 | 0.47 |  |  |  | 
Cc1ccc2c(c1)CCC2NC(=O)NCCF (centres unmarked) | not active | 247 | 0.71 |  |  |  |  | not active | 
COc1ccc2c(c1)CCC2NC(=O)NCCF (centres unmarked) | not active |  |  | 1440 | 0.35 |  |  |  | not active
O=C(NCCF)NC1CCc2ccccc21 (centres unmarked) | not active | 6.3 | 1.21 | 192 | 0.64 |  |  |  | 
O=C(NCCF)NC1CCc2cc(F)ccc21 (centres unmarked) | not active | 88 | 0.59 | 543 | 0.54 |  |  |  | 
